Patent publication US20200165194A1, “ADDITIVE COMPOSITION FOR CULTURE MEDIUM, ADDITIVE COMPOUND FOR CULTURE MEDIUM, AND METHOD FOR CULTURE OF CELLS OR TISSUE USING SAME” (NISSAN CHEMICAL CORPORATION, priority 2017, published 2020)
Like-named read-outs stand apart in the source and are kept apart here.

Assays:
Assay type in all cases: cell-based
[1] = tested on: human alveolar basal epithelial adenocarcinoma-derived cell line A549; test: Various human cancer cells-1, 3D culture, WST-8 (Experimental Example 5); settings: 4 days; for viability at 5 µM / viability at 10 µM: Homo sapiens, A549, 96 h, read-out: number of viable cells, relative value to control (100%)
Source text: (§1) Various human-derived cancer cells were precultured (single layer culture) in respective media shown below. Human uterus cervix cancer-derived cell line HeLa (manufactured by American Type Culture Collection (hereinafter indicated as ATCC), 10% fetal bovine serum (FBS, manufactured by Corning)-containing Dulbecco's Modified Eagle's Medium (hereinafter abbreviated as DMEM) (manufactured by Wako Pure Chemical Industries, Ltd.)), human malignant melanoma-derived cell line A375 (manufactured by ATCC, 10% FBS-containing DMEM), human epithelial-like cell cancer-derived cell line A431 (manufactured by ATCC, 10% FBS and 1% MEM non-essential amino acid solution (MEM Non-Essential Amino Acids solution (hereinafter abbreviated as NEAA) (manufactured by Wako Pure Chemical Industries, Ltd.))-containing Eagle's Minimum Essential Medium (hereinafter abbreviated as EMEM) (manufactured by Wako Pure Chemical Industries, Ltd.)), human stomach adenocarcinoma-derived cell line AGS (manufactured by DS PHARMA BIO MEDICAL, 10% FBS-containing Ham's F-12 (manufactured by Wako Pure Chemical Industries, Ltd.)), human prostate cancer-derived cell line LNCaP clone FGC (manufactured by ATCC, 10% FBS-containing RPMI1640 (manufactured by Wako Pure Chemical Industries, Ltd.)), human colon adenocarcinoma-derived cell line HCT116 (manufactured by DS PHARMA BIO MEDICAL, 10% FBS-containing McCoy's 5A Medium (manufactured by Sigma-Aldrich)), human alveolar basal epithelial adenocarcinoma-derived cell line A549 (manufactured by DS PHARMA BIO MEDICAL, 10% FBS-containing DMEM), human prostate cancer-derived cell DU145 (manufactured by ATCC, 10% FBS-containing EMEM). The above-mentioned cells in the logarithmic growth phase were washed with PBS, a 0.25 w/v % trypsin-1 mmol/L EDTA (ethylenediaminetetraacetic acid) solution (manufactured by Wako Pure Chemical Industries, Ltd.) was added, and adherent cells were detached by incubating at 37° C. for 1-5 min. Each medium was added and the mixture was centrifuged. After resuspension in the same medium, each cell was recovered.
(§2) The aforementioned various cells were suspended in respective deacylated gellan gum-containing or not containing media (deacylated gellan gum concentration was 0.015 w/v %, and 0.020 w/v % for RPMI1640 alone), and seeded in a 96 well low attachment U-bottom plate (manufactured by Corning, deacylated gellan gum-free medium), or a low attachment flat bottom plate (manufactured by Corning, deacylated gellan gum-containing medium) at a cell concentration of 1000-12000 cells/135 μL/well (all 3D culture). After static culture overnight in 37° C., 5% CO2 incubator, a DMSO solution of the compound to be used in the present invention was added to each medium at a final concentration of 5 μM or 10 μM. The amount of each compound solution to be added was 15 μL/well. As a control, a DMSO solution dissolved in a medium was added (DMSO final concentration 0.1%). After continuously culturing in an incubator at 37° C., 5% CO2 for 4 days, WST-8 solution (manufactured by DOJINDO LABORATORIES) was added at 15 μL/well, and the mixture was reacted in the same incubator for 1-2 hr. […] When compared with the compound no-addition (control), one showing a value of not more than 119% as -, one showing a value of not less than 120% as ◯, and one showing a value of not less than 150% as ⊚ are shown in the tenth table.

[2] = tested on: human epithelial-like cell cancer-derived cell line A431; test: as above; settings: 4 days
Source text: as §1, §2

[3] = tested on: human malignant melanoma-derived cell line A375; test: as above; settings: 4 days; for viability at 5 µM / viability at 10 µM: Homo sapiens, A-375, 96 h, read-out: number of viable cells, relative value to control (100%)
Source text: as §1, §2

[4] = tested on: human prostate cancer-derived cell line LNCaP clone FGC; test: as above; settings: 4 days
Source text: as §1, §2

[5] = tested on: human uterus cervix cancer-derived cell line HeLa; test: as above; settings: 4 days
Source text: as §1, §2

[6] = tested on: Bone marrow-derived human mesenchymal stem cells (BM-hMSC); test: Cells cultured by hanging drop method, ATP assay (Experimental Example 12); settings: for cell number (relative value): BM-hMSC, hanging drop, 5 μM, 2 days, control = 100%; for cell number (in words): bone marrow-derived human mesenchymal stem cells, hanging drop method
Method: (§3) Human epithelial-like cell cancer-derived cell line A431 (manufactured by ATCC) was cultured using 10% FBS and 1% MEM non-essential amino acid solution (MEM NEAA, manufactured by Wako Pure Chemical Industries, Ltd.)-containing EMEM (manufactured by Wako Pure Chemical Industries, Ltd.)). In addition, bone marrow-derived human mesenchymal stem cells (BM-hMSC, manufactured by PromoCell) were cultured using a mesenchymal stem cell proliferation medium (manufactured by PromoCell). Each of the above-mentioned cells in the logarithmic growth phase was washed with PBS, a 0.25 w/v % trypsin-1 mmol/L EDTA (ethylenediaminetetraacetic acid) solution (manufactured by Wako Pure Chemical Industries, Ltd.) was added, and the cells were detached by incubating at 37° C. for 3 min. Each medium was added, the mixture was centrifuged, and the supernatant was removed.
(§4) The cell suspension was seeded by 10 μL in 15 drops on the back surface of the lid of a 3.5 cm dish (manufactured by Falcon, #351008) to form droplets. At this time, as a control, a medium supplemented with DMSO (final concentration of DMSO: 0.05%) was seeded by 10 μL in 15 drops. The lid was returned to a 3.5 cm dish added with 2 mL of PBS, and cultured for 2 days in an incubator at 37° C., 5% CO2. The cultured droplets were collected in a 1.5 mL tube, and the medium was added to a final volume of 150 μL.

[7] = tested on: human epithelial-like cell cancer-derived cell line A431; test: as above; settings: for cell number (in words): A431 cell line, three-dimensional cell culture by the hanging drop method; for cell number (relative value): A431 cell, hanging drop, 5 μM, 2 days, control = 100%
Method: as §3, §4

[8] = low attachment U-bottom plate (gellan gum-free), 5 μM
[9] = low attachment U-bottom plate (gellan gum-free), 10 μM
[10] = low attachment flat bottom plate (gellan gum medium), 5 μM
[11] = low attachment flat bottom plate (gellan gum medium), 10 μM

## CC/C(=N\NC(=O)Nc1ccccc1)c1ccc(O)c(C)c1O [k-1:H-10]
[1]; [8]
  viability at 5 µM: < 119%
[1]; [9]
  viability at 10 µM: < 119%
[1]; [10]
  viability at 5 µM: 120 to 150%
[1]; [11]
  viability at 10 µM: 120 to 150%
[2]; Homo sapiens, A-431, 96 h, low attachment U-bottom plate (gellan gum-free), 5 μM, read-out: number of viable cells, relative value to control (100%)
  viability at 5 µM: < 119%
[2]; Homo sapiens, A-431, 96 h, low attachment U-bottom plate (gellan gum-free), 10 μM, read-out: number of viable cells, relative value to control (100%)
  viability at 10 µM: < 119%
[3]; [8]
  viability at 5 µM: < 119%
[3]; [9]
  viability at 10 µM: 120 to 150%
[3]; [10]
  viability at 5 µM: < 119%
[3]; [11]
  viability at 10 µM: < 119%
[4]; Homo sapiens, LNCaP-Clone-FGC, 96 h, low attachment U-bottom plate (gellan gum-free), 5 μM, read-out: number of viable cells, relative value to control (100%)
  viability at 5 µM: 120 to 150%
[4]; Homo sapiens, LNCaP-Clone-FGC, 96 h, low attachment flat bottom plate (gellan gum medium), 5 μM, read-out: number of viable cells, relative value to control (100%)
  viability at 5 µM: < 119%
[4]; Homo sapiens, LNCaP-Clone-FGC, 96 h, low attachment flat bottom plate (gellan gum medium), 10 μM, read-out: number of viable cells, relative value to control (100%)
  viability at 10 µM: < 119%
[4]; [9]
  number of viable cells, relative value to control (100%): ⊙
[5]; Homo sapiens, 96 h, low attachment U-bottom plate (gellan gum-free), 5 μM, read-out: number of viable cells, relative value to control (100%)
  viability at 5 µM: < 119%
[5]; Homo sapiens, 96 h, low attachment U-bottom plate (gellan gum-free), 10 μM, read-out: number of viable cells, relative value to control (100%)
  viability at 10 µM: < 119%

## CC/C(=N\NC(=O)C(C)Nc1ccccc1)c1ccc(O)c(C)c1O (stereo not drawn) [k-1:B-1]
[6]
  cell number (relative value): 223%
  cell number (in words): showed an effect of increasing the number
[7]
  cell number (in words): showed an effect of increasing the number
  cell number (relative value): 227%

## CCC(=NNC(=O)C(CC)Nc1ccccc1)c1ccc(O)c(C)c1O (stereo not drawn) [k-1:H-7]
[1]; [9]
  number of viable cells, relative value to control (100%): ◯ (one showing a value of not less than 120% as ◯)
[1]; [10]
  number of viable cells, relative value to control (100%): ⊙
[1]; [11]
  number of viable cells, relative value to control (100%): ⊙
[2]; [8]
  number of viable cells, relative value to control (100%): ⊙
[2]; [9]
  number of viable cells, relative value to control (100%): ⊙
[2]; [10]
  number of viable cells, relative value to control (100%): ⊙
[2]; [11]
  number of viable cells, relative value to control (100%): ⊙
[3]; [9]
  number of viable cells, relative value to control (100%): ◯ (one showing a value of not less than 120% as ◯)
[3]; [10]
  number of viable cells, relative value to control (100%): ◯ (one showing a value of not less than 120% as ◯)
[4]; [8]
  number of viable cells, relative value to control (100%): ⊙
[4]; [9]
  number of viable cells, relative value to control (100%): ◯ (one showing a value of not less than 120% as ◯)
[5]; [11]
  number of viable cells, relative value to control (100%): ◯ (one showing a value of not less than 120% as ◯)
[6]
  cell number (relative value): 206%
  cell number (in words): showed an effect of increasing the number
[7]
  cell number (in words): showed an effect of increasing the number
  cell number (relative value): 232%
